Laboratory results taken from patent US20220390432A1, “METHODS OF CHARACTERIZING AND UTILIZING AGENT-CONDENSATE INTERACTIONS” (Whitehead Institute for Biomedical Research, priority 2019, published 2022).
No end group written: not given here.

T1: ER/MED1 droplets (Homo sapiens, UniProt P03372)
T1 sequence (P03372 1-595): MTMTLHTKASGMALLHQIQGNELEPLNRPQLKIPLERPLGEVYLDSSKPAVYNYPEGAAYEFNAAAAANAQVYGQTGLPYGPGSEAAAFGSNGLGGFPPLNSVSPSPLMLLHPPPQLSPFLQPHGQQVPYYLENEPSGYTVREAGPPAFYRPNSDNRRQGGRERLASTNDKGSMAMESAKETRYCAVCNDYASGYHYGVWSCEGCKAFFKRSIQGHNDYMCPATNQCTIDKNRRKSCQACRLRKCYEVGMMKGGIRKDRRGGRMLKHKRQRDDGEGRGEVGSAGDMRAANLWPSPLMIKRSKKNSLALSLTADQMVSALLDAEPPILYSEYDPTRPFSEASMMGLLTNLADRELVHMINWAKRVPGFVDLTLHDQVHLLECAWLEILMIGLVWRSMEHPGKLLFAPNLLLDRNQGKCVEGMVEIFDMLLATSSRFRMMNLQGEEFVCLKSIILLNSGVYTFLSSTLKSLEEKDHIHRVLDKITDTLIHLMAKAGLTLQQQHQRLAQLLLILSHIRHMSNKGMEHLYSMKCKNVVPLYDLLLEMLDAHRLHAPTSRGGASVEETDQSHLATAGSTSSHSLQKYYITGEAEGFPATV

B1: LXXLL peptide (QNPILTSLLQITG; SEQ ID NO: 1) (peptide)
peptide: QNPILTSLLQITG
modifications: also: fluorescent label, type and position not given here
notes: also called fluorescent peptide

Key:
[1] = test system: MED1, BRD4, and POL2 condensates in HCT116 colon cancer cell lines; assay: Small molecule effects on transcriptional condensates in GFP-tagged HCT116 cells; format: cell-based, human; details: for effect on transcriptional condensates: MED1-GFP, BRD4-GFP, POL2-GFP HCT116; for effect of antimetabolites on MED1, BRD4 or POL2 condensates: 5 uM
Excerpt: HCT116 colon cancer cell lines endogenously tagged with MED1-GFP, BRD4-GFP, POL2-GFP, or HP1a-GFP (Mock), all forming condensates in the nucleus.

ER/MED1 droplets = target: T1, ER/MED1 droplets; assay: Peptides added to ER/MED1 droplets; format: biochemical; details: for effect of peptide on ER partitioning / ER/MED1 droplet formation: in the presence of estrogen
Method: FIG. 24 illustrates ER/MED1 droplets contacted with a fluorescent peptide (left side).
A number of condensate components are known to form in vitro condensates. In general, one or more condensate components are added to solutions (e.g. aqueous solution) at varying concentrations in the presence of a salt (e.g., NaCl) and, optionally, a crowding agent (e.g., polyethylene glycol, Ficoll). See, e.g., Boija et al, Cell, vol. 175, no. 7, pp. 1842-1855 (2018); Sabari et al., Science, vol. 361, pp. 361-371 (2018); Bergeron-Sandoval et al., Cell, vol. 165, no. 5, pp. 1067-1079 (2016). May 19; 165(5):1067-1079, the relevant methods of which are specifically incorporated herein. In some embodiments, in vitro MED1 containing condensates are formed by adding about 10 μM of MED1 to a solution containing […] of NaCl and 10% PEG (e.g., PEG-8000).

MED1 = target: T2, MED1 (Homo sapiens, UniProt Q15648); assay: In vitro droplet assay, small molecule partitioning into MED1 condensates; format: binding; details: confocal fluorescence; Example 2: 125 mM NaCl, 10% PEG, 10 μM protein; fluorescent or fluorescently labeled drug
T2 construct: MED1—amino acids 600-1581; 6xHis (N); made in house; host or cells: LOBSTR cells (E. coli)
T2 sequence (Q15648 600-1581): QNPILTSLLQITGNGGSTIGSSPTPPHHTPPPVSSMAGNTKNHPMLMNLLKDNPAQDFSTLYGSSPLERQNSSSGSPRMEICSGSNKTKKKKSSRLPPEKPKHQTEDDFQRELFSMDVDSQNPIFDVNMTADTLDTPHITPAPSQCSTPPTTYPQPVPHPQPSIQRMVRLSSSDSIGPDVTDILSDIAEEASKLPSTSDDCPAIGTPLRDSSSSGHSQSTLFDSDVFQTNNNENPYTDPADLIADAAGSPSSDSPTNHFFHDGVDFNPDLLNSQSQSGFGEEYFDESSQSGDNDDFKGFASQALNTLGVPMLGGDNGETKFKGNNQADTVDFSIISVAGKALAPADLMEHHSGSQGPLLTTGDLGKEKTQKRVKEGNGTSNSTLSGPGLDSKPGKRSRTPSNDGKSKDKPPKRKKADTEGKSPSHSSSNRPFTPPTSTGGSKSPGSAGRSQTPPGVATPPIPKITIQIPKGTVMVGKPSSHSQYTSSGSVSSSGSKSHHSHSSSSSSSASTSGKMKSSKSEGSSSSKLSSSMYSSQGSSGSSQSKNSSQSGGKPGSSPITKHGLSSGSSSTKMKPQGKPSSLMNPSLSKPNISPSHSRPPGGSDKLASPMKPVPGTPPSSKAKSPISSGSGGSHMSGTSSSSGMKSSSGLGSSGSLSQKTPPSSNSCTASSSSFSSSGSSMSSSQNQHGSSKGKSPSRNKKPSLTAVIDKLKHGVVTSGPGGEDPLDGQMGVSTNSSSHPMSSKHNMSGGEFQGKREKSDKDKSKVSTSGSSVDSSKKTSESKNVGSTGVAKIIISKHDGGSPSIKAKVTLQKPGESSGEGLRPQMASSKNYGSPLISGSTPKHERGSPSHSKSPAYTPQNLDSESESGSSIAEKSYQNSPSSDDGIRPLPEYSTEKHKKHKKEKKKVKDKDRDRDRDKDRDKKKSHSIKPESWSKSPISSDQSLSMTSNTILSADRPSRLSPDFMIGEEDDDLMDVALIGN
Method: Recombinant BFP, GFP, or mCherry fusion proteins were concentrated and desalted to an appropriate protein concentration and 125 mM NaCl using Amicon Ultra centrifugal filters (30K MWCO, Millipore). Recombinant protein was added too. […] The protein solution was immediately loaded onto glass bottom 384 well plate (Cellvis P384-1.5H-N) and imaged with an Andor confocal microscope with a 150× objective. Unless indicated, images presented are of droplets settled on the glass coverslip.
Drug and small molecule concentrations used in the droplet experiments are as follows:
To analyze in vitro droplet experiments, custom Python scripts using the scikit-image package were written to identify droplets and characterize their size, shape and intensity. Droplets were segmented from average images of captured channels on various criteria: (1) an intensity threshold that was three s.d. above the mean of the image; (2) size thresholds (20 pixel minimum droplet size); and (3) a minimum circularity (circularity=4π·areaperimeter2) (circularity=4π·areaperimeter2) of 0.8 (1 being a perfect circle). After segmentation, mean intensity for each droplet was calculated while excluding pixels near the phase interface, and background-corrected by subtracting intensity of dark images of droplet formation buffer only. Droplets identified in the channel of the fluorescent protein from ten independent fields of view were quantified for each experiment. The maximum intensity of signal within the droplets was calculated for each channel, the maximum intensity in the drug channel was termed “maximum drug intensity”. To obtain the intensity of drug or dye alone in the diffuse state (termed “diffuse drug intensity”), the compound was added to droplet formation buffer at same concentration used in the droplet assay. This was then imaged on a confocal fluorescent microscope. The resulting image was processed in FIJI to obtain the fluorescent intensity of the field. To obtain the fluorescent intensity of protein droplets that bleed through in the drug channel (termed “background intensity”) protein droplets were imaged in the fluorescent channel in which the drug fluoresces and processed as above to obtain the average maximum intensity within the droplet across 10 images. The enrichment ratio was obtained by the following formula [(maximum drug intensity)−(background intensity)]/(diffuse drug intensity). The box plots show the distributions of all droplets. Each dot represents an individual droplet.

[2] = Droplet formation assay of small molecule alone without any protein; format: physicochemical; details: without any protein added
Method: Recombinant BFP, GFP, or mCherry fusion proteins were concentrated and desalted to an appropriate protein concentration and 125 mM NaCl using Amicon Ultra centrifugal filters (30K MWCO, Millipore). […] […] The protein solution was immediately loaded onto glass bottom 384 well plate (Cellvis P384-1.5H-N) and imaged with an Andor confocal microscope with a 150× objective. Unless indicated, images presented are of droplets settled on the glass coverslip.

MED1 droplets = target: T3, MED1 droplets (Homo sapiens, UniProt Q15648); assay: In vitro droplet drug chase out experiment; format: binding; details: 5 μM cisplatin-TR, 10 μM MED1, unlabeled compound 10, 100 or 500 μM
T3 construct: MED1—amino acids 600-1581; 6xHis (N); made in house; host or cells: LOBSTR cells (E. coli)
T3 sequence (Q15648 600-1581): as above
Method: For chase-out experiments 5 μM labeled cisplatin-TR was added to a MED1 droplets reaction (10 μM MED1, 50 mM Tris-HCl pH 7.5, 10% glycerol, 1 mM DTT, 10% PEG) in order to form MED1 droplets concentrated with Cisplatin-TR. Unlabeled transplatin or unlabeled cisplatin (vehicle, 10 μM, 100 μM, or 500 μM) were added to the droplet mixture and the amount of labeled cisplatin-TR remaining in the droplet is measured after chase out. 100 μM fluorescent FLTX1 was added to a MED1 droplets reaction (10 μM MED1, 50 mM Tris-HCl pH 7.5, 10% glycerol, 1 mM DTT, 10% PEG) in order to form MED1 droplets concentrated with FLTX1.

[3] = target: T4, MED1 intrinsically disordered region, amino acids 600-1581, recombinant fluorescent fusion protein (human, UniProt Q15648 600-1581); assay: in vitro droplet assay, peptide added to ER/MED1 droplets
T4 construct: Scaffold protein of the in vitro droplets; also called MED1-IDR; MED1 IDR; not shown: N-terminal 6xHIS plus fluorescent protein (BFP, mEGFP or mCherry)
T4 sequence (Q15648 600-1581 limits assumed): as the sequence (Q15648 600-1581) above

Molecule | effect on transcriptional condensates [1] | partitioning / incorporation into MED1 droplets (MED1) | other results
N#CC(=C(/N)Sc1ccccc1N)/C(C#N)=C(/N)Sc1ccccc1N [U0216] | eviction of some condensate components |  | 
CNC(=O)Nc1ccc2c(c1)CC[C@@]21OC(=O)N(CC(=O)N(Cc2ccc(F)cc2)[C@@H](C)C(F)(F)F)C1=O [A485] | genomic release and consolidation of condensates |  | 
QNPILTSLLQITG [LXXLL peptide] |  |  | incorporation of peptide into MED1 droplets (ER/MED1 droplets; ER/MED1 droplets): incorporated into MED1 droplets; effect of peptide on ER partitioning / ER/MED1 droplet formation (ER/MED1 droplets): decrease in partitioning of ER into the MED1 droplet
O=c1[nH]cc(F)c(=O)[nH]1 [5-FU, fluorouracil] |  |  | effect of antimetabolites on MED1, BRD4 or POL2 condensates [1]: no effect
COc1cccc2c1C(=O)c1c(O)c3c(c(O)c1C2=O)C[C@@](O)(C(C)=O)C[C@@H]3O[C@H]1C[C@H](N)[C@H](O)[C@H](C)O1 [Daunorubicin] | global dissolution of condensates | immediately incorporate into MED1 droplets | effect on transcriptional condensates ([1]; listed as daunorubicin): cause condensate dissolution
CTD: RNA polymerase II CTD repeat YSPTSPS peptide |  |  | effect of peptide on ER partitioning / ER/MED1 droplet formation (ER/MED1 droplets): did not have an effect
Texas Red |  | Neither of the two dyes used to visualized drugs were enriched | 
Nc1ncn([C@@H]2O[C@H](CO)[C@@H](O)[C@H]2O)c(=O)n1 [5-Aza] |  |  | effect of antimetabolites on MED1, BRD4 or POL2 condensates [1]: no effect
CN(C)C/C=C/C(=O)Nc1ccc(C(=O)Nc2cccc(Nc3ncc(Cl)c(-c4c[nH]c5ccccc45)n3)c2)cc1 [THZ1] | global dissolution of condensates | concentrated preferentially in MED1 droplets | droplet formation of small molecule alone [2]: diffuse fluorescent signal
CC(C)C[C@H](NC(=O)[C@H](Cc1ccccc1)NC(=O)c1cnccn1)B(O)O [Bortezomib] | global dissolution of condensates |  | 
N.N.[Cl][Pt+2][Cl] [Transplatin, transplatin] |  |  | chase out of cisplatin-TR from MED1 droplets by unlabeled compound (MED1 droplets): not able to chase out cisplatin-TR; chase out of cisplatin-TR from MED1 droplets by unlabeled compound (MED1 droplets; listed as isomer of cisplatin): did not exhibit the same behavior
COc1cc(/C=C/C(=O)CC(=O)/C=C/c2ccc(O)c(OC)c2)ccc1O [curcumin] | cause condensate dissolution | immediately incorporate into MED1 droplets | 
B1 |  |  | binding result [3]: binds
